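Following 48 hours of exposure in 96-well plates, responses at five concentrations were used to interpolate endpoints linearly. GI50: concentration for 50% inhibition of growth.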 The source made the active and inactive calls. Rule as the data show it: active = GI50 up to about 1.1 µM and inactive = higher.
Key:
Experiment in all cases: growth of human tumour cells (NCI), 48 h
786-0 = test system: 786-0
A498 = test system: A498
A549 = test system: A549
CAKI-1 = test system: CAKI-1
CCRF-CEM = test system: CCRF-CEM
HCT-116 = test system: HCT-116
HOP-62 = test system: HOP-62
IGROV-1 = test system: IGROV-1
K562 = test system: K562
KM12 = test system: KM12
LOX IMVI = test system: LOX IMVI
M14 = test system: M14
MOLT-4 = test system: MOLT-4
NCI/ADR-RES = test system: NCI/ADR-RES
RXF 393 = test system: RXF 393
SF-539 = test system: SF-539
SN12C = test system: SN12C
TK-10 = test system: TK-10
UACC-62 = test system: UACC-62
UO-31 = test system: UO-31

Measured: GI50

COC1(OC)c2no[n+]([O-])c2CCC1O (stereo not given)
inactive: 786-0 > 100 µM | A498 > 100 µM | A549 > 100 µM | CAKI-1 > 100 µM | CCRF-CEM > 100 µM | HCT-116 > 100 µM | HOP-62 > 100 µM | IGROV-1 > 100 µM | K562 > 100 µM | KM12 > 100 µM | LOX IMVI > 100 µM | M14 > 100 µM | MOLT-4 > 100 µM | NCI/ADR-RES > 100 µM | RXF 393 > 100 µM | SF-539 > 100 µM | SN12C > 100 µM | TK-10 > 100 µM | UACC-62 > 100 µM | UO-31 > 100 µM

CCCCNC(=O)c1cc(S(=O)(=O)n2ccnc2O)c(SC)cc1Cl
inactive: 786-0 > 100 µM | A498 26.1 µM | A549 > 100 µM | CAKI-1 > 100 µM | CCRF-CEM > 100 µM | HCT-116 > 100 µM | HOP-62 > 100 µM | IGROV-1 > 100 µM | K562 > 100 µM | KM12 > 100 µM | LOX IMVI > 100 µM | M14 > 100 µM | MOLT-4 > 100 µM | NCI/ADR-RES > 100 µM | RXF 393 > 100 µM | SF-539 > 100 µM | SN12C > 100 µM | TK-10 > 100 µM | UACC-62 > 100 µM | UO-31 > 100 µM

From ChEMBL document CHEMBL1201862, “PubChem BioAssay data set” (2004)
